Measured values: patent publication US9309276B2, “Synthetic lipid A derivative” (University of Georgia Research Foundation, Inc., priority 2007, dated 2016)
Like-named read-outs stand apart in the source and are kept apart here.

Assays:
Format in all cases: cell-based
[1] = system: MM6 cells; assay: Antagonism of E. coli LPS-induced TNF-α production in human monocytic MM6 cells; conditions: 5.5 h, read-out: IC50 (concentration producing 50% inhibition) of TNF production induced by E. coli LPS
Method: TNF-α concentrations were measured after preincubation of MM6 cells with increasing concentrations of 103 or 104 as indicated for 1 h at 37° C., followed by 5.5 h of incubation with E. coli LPS (1 ng mL^−1). Results are expressed as percentage of cytokine concentration of control cells, which are incubated only with E. coli LPS.
Compounds that lack proinflammatory properties may still interact with relevant receptors (TLR4/MD2/CD14), and thereby inhibit TNF-α production induced by E. coli LPS. […]
(§1) On the day of the exposure assay differentiated MM6 cells were harvested by centrifugation and suspended (10^6 cells mL^−1) in tissue culture tubes and RAW 264.7 γNO(−) cells were plated as 2×10^5 cells/well in 96-well tissue culture plates (Nunc). […] Concentrations of human TNF-α protein in culture supernatants were determined by a solid phase sandwich ELISA. […] After the reaction was stopped by adding peroxidase stop solution (Kirkegaard & Perry Laboratories), the absorbance was measured at 405 nm using a microplate reader (BMG Labtech). Cytokine DuoSet ELISA Development Kits (R&D Systems) were used for the cytokine quantification of mouse TNF-α, mouse IL-6, mouse IP-10 and mouse IL-1β according to the manufacturer's instructions. The absorbance was measured at 450 nm with wavelength correction set to 540 nm. Concentrations of mouse IFN-β in culture supernatants were determined as follows. […]

[2] = system: RAW cells; assay: Antagonism of E. coli LPS-induced TNF-α production in mouse macrophages (RAW cells); conditions: mouse cell line, E. coli LPS (10 ng/mL), 5.5 h
Method: Compounds that lack proinflammatory properties may still interact with relevant receptors (TLR4/MD2/CD14), and thereby inhibit TNF-α production induced by E. coli LPS. Thus, the human monocytic cells and mouse macrophages (MM6 and RAW cells) were exposed to a combination of E. coli LPS (10 ng/mL) and a wide range of concentrations of lipid As 103 and 104 and, after an incubation time of 5.5 h, the supernatant was examined for human or mouse TNF-a.
as §1

[3] = target: T1, human TLR2 (Homo sapiens, UniProt O60603); assay: NF-κB activation in HEK 293T cells stably transfected with human TLR2; conditions: 103/104 at 0.1, 1 and 10 μg mL−1; Pam3CysSK4 1 μg mL−1; 4 h
T1 construct: host or cells: HEK 293T
Method: Induction of NF-κB activation was determined in triplicate cultures of HEK 293T cells stably transfected with human or mouse (a) TLR4/MD2/CD14 and (b) TLR2 and transiently transfected with pELAM-Luc and pRL-TK plasmids. Forty-four h post-transfection, cells were treated with (B) E. coli LPS (10 ng mL^−1), (C) Pam3CysSK4 (1 μg mL^−1), (D, E and F) 103 (0.1, 1 and 10 μg mL^−1, respectively), (G, H and I) 104 (0.1, 1 and 10 μg mL^−1, respectively) or (A) were left untreated (control). Forty-eight h post-transfection, NF-κB activation was determined by firefly luciferase activity relative to Renilla luciferase activity. n.a. indicates not analyzed.
To examine the ability of the synthetic compounds to induce activation of NF-κB, HEK 293T cells were employed that were stably transfected with various immune receptors and transiently transfected with a plasmid containing the reporter gene pELAM-Luc (NF-κB-dependent firefly luciferase reporter vector) and a plasmid containing the control gene pRL-TK (Renilla luciferase control reporter vector) (FIG. 11). […] Although compound 104 is a weak activator of mouse TLR4, it could not induce the secretion of cytokines.
The day before transfection, HEK 293T wild type cells and HEK 293T cells stably transfected with human and murine TLR4/MD2/CD14 and human and murine TLR2 were plated in 96-well tissue culture plates (16,000 cells/well). The next day, cells were transiently transfected using PolyFect Transfection Reagent (Qiagen) with expression plasmids pELAM-Luc (NF-κB-dependent firefly luciferase reporter plasmid, 50 ng/well) (Chow et al., J. Biol. Chem., 1999, 274, 10689-10692) and pRL-TK (Renilla luciferase control reporter vector, 1 ng/well; Promega) as an internal control to normalize experimental variations. […] The luciferase activity was measured using the Dual-Luciferase Reporter Assay System (Promega) according to the manufacturer's instructions and a combination luminometer/fluorometer microplate reader (BMG Labtech). […]

T1 sequence (O60603 21-784): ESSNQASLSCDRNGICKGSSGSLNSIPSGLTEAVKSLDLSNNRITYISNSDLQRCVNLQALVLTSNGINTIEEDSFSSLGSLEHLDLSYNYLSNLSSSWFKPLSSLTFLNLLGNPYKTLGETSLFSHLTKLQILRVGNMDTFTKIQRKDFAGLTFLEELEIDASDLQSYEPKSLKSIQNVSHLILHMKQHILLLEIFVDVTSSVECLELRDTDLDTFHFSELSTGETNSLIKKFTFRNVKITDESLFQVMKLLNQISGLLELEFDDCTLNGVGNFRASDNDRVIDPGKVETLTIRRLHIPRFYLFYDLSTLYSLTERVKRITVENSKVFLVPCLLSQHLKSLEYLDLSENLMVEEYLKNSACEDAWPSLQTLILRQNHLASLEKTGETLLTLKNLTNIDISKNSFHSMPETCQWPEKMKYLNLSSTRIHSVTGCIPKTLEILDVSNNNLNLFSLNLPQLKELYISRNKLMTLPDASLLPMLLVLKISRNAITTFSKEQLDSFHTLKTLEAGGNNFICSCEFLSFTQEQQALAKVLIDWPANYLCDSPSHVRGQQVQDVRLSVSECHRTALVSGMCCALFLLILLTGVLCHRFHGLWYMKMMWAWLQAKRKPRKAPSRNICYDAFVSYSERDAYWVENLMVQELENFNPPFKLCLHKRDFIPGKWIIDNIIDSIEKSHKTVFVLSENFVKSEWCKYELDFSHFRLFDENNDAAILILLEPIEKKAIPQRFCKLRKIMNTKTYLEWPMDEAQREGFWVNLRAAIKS

Row | SMILES | IC50 ([1]; human MM6 cells, E. coli LPS (10 ng/mL)) | inhibition of TNF-α production induced by E. coli LPS [2] | NF-κB activation, human TLR2 [3] | IC50 ([1]; Homo sapiens)
1 | CCCCCCCCCCCCCCCC(=O)O[C@H](CCCCCCCCCCCC(C)C)CC(=O)N[C@H]1[C@H](OC[C@H]2O[C@H](OP(=O)(O)O)[C@H](NC(=O)C[C@H](O)CCCCCCCCCCCC(C)C)[C@@H](OC(=O)C[C@H](O)CCCCCCCCCCCCC)[C@@H]2O)O[C@H](CO)[C@@H](O)[C@@H]1O [Compound 103, 6-O-{2-Deoxy-2-[(R)-3-hexadecanoyloxy-15-methyl-hexadecanoylamino]-β-D-glucopyranosyl}-3-O—[(R)-3-hydroxy-hexadecanoyl]-2-deoxy-2-[(R)-3-hydroxy-15-methyl-hexadecanoylamino]-α-D-glucopyranose 1-phosphate] | 160 nM | marginal inhibition | No activation of NF-κB | 
2 | CCCCCCCCCCCCCCCC(=O)O[C@H](CCCCCCCCCCCC(C)C)CC(=O)N[C@H]1[C@H](OC[C@H]2O[C@H](OP(=O)(O)O)[C@H](NC(=O)C[C@H](O)CCCCCCCCCCCC(C)C)[C@@H](O)[C@@H]2O)O[C@H](CO)[C@@H](O)[C@@H]1ONC(=O)C[C@H](O)CCCCCCCCCC(C)C [Compound 104, 6-O-{2-Deoxy-2-[(R)-3-hexadecanoyloxy-15-methyl-hexadecanoylamino]-3-O—[(R)-3-hydroxy-13-methyl-tetradecanoylamino]-β-D-glucopyranosyl}-2-deoxy-2-[(R)-3-hydroxy-15-methyl-hexadecanoylamino]-α-D-glucopyranose 1-phosphate] |  | marginal inhibition | No activation of NF-κB | 3200 nM
